The values that follow come from patent US5760036A, “Aminediol protease inhibitors” (E. R. Squibb & Sons, Inc., priority 1995, dated 1998).

A word on the inhibition: it is the relative decrease from the control value, in per cent. One may read the IC50 as the concentration at which inhibition is half-maximal.

The target in one assay is T1, HIV protease (Human immunodeficiency virus type 1 group M subtype B, UniProt P04585).
T1 construct: and purified protease
Briefly: HIV Protease Assay. The settings on record: for HIV Protease % Inhibition at 10 μM: 10 μM inhibitor. It is filed as biochemical. The gist of the method: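 At a single final concentration of 10 μM (4% DMSO), inhibitors were added to a 30-minute, 37° C reaction of purified enzyme with 450 μM H2N-Val-Ser-Gln-Asn-(β-naphthyl-alanine)-Pro-Val-Ile-OH at pH 5.5 (sodium acetate, BSA). Hydrolysis was quantified by reverse-phase HPLC with 220 nm detection after acid quench.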

Assay [1] concerns RF strain of HIV (CEM-SS cells). Briefly: Cell Culture Anti-HIV Activity (cell viability, formazan). Conditions: CEM-SS cells, RF strain of HIV, multiplicity of infection 0.04, 6 days at 37° C., 450 nm, read-out: HIV (CEM Cells) IC50. It is filed as cell-based. The gist of the method:
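Half-log compound dilutions added to CEM-SS cells (5000/well) carrying HIV RF (MOI 0.04), 6 days, 37° C. Cell protection measured as formazan from tetrazolium, A450. IC50: drug level restoring infected-cell formazan to 50% of the uninfected untreated control.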

Where [2] appears, read: pH 5.5, 10 μM inhibitor, 4% DMSO, 450 μM substrate, pH 5.5, 30 minutes at 37° C., RP-HPLC, read-out: HIV Protease % Inhibition at 10 μM.
[3] abbreviates: Human immunodeficiency virus 1, CEM-SS, 144 h.
The mark [4] stands for this setting: 4% DMSO, 450 μM substrate, pH 5.5, 30 minutes at 37° C., RP-HPLC.
[5] abbreviates: pH 5.5, read-out: HIV Protease % Inhibition at 10 μM.

Like-named read-outs stand apart in the source and are kept apart here.

As for `COC(=O)N[C@H](C(=O)N[C@@H](Cc1ccccc1)[C@H](O)CNC[C@@H](O)[C@H](Cc1ccc(OCCc2ccccn2)cc1)NC(=O)OC(C)(C)C)C(C)(C)C` (relative stereo) [Compound 327, [1R*,2S*(2S*,3R*)-N-[3-[[3-[[(1,1-Dimethylethoxy)carbonyl]amino]-2-hydroxy-4-[4-[2-(2-pyridinyl)ethoxyl]phenyl]butyl]amino]-2-hydroxy-1-(phenylmethyl)propyl]-N^2-(methoxycarbonyl)-3-methyl-L-valinamide], at HIV protease (setting [2]), the inhibition at 10 µM amounted to 99%. Moreover, the IC50 in assay [1] (setting [3]) came to 50 nM.

Consider `COC(=O)N[C@H](C(=O)N[C@@H](Cc1ccc(OCC(=O)N2CCOCC2)cc1)[C@H](O)CNC[C@@H](O)[C@H](Cc1ccccc1)NC(=O)OC(C)(C)C)C(C)(C)C` (relative stereo) [Compound 341, [1R*,2S*(2S*,3R*)]-N-[3-[[3-[[(1,1-Dimethylethoxy)carbonyl]amino]-2-hydroxy-4-phenylbutyl]amino]-2-hydroxy-1-[[4-[2-(4-morpholinyl)-2-oxoethoxy]phenyl]methyl]propyl]-N^2-(2-methoxycarbonyl)-3-methyl-L-valinamide], for which the inhibition at 10 µM on HIV protease (setting [2]) came to 99%. Also, the IC50 in assay [1] (setting [3]) stood at 2100 nM.

As for `CNC(=O)N(C)[C@H](C(=O)N[C@@H](Cc1ccccc1)[C@H](O)CNC[C@@H](O)[C@H](Cc1ccccc1)NC(=O)OC(C)(C)C)C(C)(C)C` (relative stereo) [Compound 342, [1R*,2S* (2S*, 3R*)]-N-[3-[[3-[[(1,1-Dimethylethoxy)carbonyl]amino]-2-hydroxy-4-phenylbutyl]amino]-2-hydroxy-1-(phenylmethyl)propyl]-N^2-[(methylamino)carbonyl]-N^2-3-dimethyl-L-valinamide], the inhibition at 10 µM at HIV protease (setting [2]) was found to be 99%. For the same compound, the IC50 in assay [1] (setting [3]) worked out at 70 nM.

For `COC(=O)N[C@H](C(=O)N[C@@H](Cc1ccccc1)[C@H](O)CNC[C@@H](O)[C@H](Cc1ccccc1)NC(=O)OC(C)(C)CO)C(C)(C)C` (relative stereo) [Compound 359, [1R*,2S*(2S*,3R*)]-N-[2-Hydroxy-3-[[2-hydroxy-3-[[(2-hydroxy-1,1-dimethylethoxy)-carbonyl]amino]-4-phenylbutyl]amino]-1-(phenylmethyl)propyl]-N^2-(2-methoxycarbonyl)-3-methyl-L-valinamide], the inhibition at 10 µM on HIV protease (setting [2]) was 99%. In addition, the IC50 in assay [1] (setting [3]) came to 560 nM.

As to `CC(C)(C)OC(=O)N[C@@H](Cc1ccccc1)[C@H](O)CNC[C@@H](O)[C@H](Cc1ccccc1)NC(=O)C1NC(=O)CC1(C)C` (single isomer, unassigned) [Compound 267, [1S-[1R*,2S*(2S*,3R*)]]-[3-[[3-[[(3,3-Dimethyl-5-oxo-2-pyrrolidinyl)carbonyl]amino]-2-hydroxy-4-phenylbutyl]amino]-2-hydroxy-l-(phenylmethyl)propyl]carbamic acid, 1,1-dimethylethyl ester], at HIV protease (setting [4]), the “HIV Protease % Inhibition at 10 μM” value is on record as 97%. The IC50 in assay [1] (setting [3]) amounted to 180 nM.

`CC(C)(C)OC(=O)N[C@@H](Cc1ccccc1)[C@H](O)CNC[C@@H](O)[C@H](Cc1ccccc1)NC(=O)C(O)C(F)(F)F` (single isomer, unassigned; isomer a) [Compound 271, [1S-[1R*,2S*(2S*,3R*)]]-[2-Hydroxy-1-(phenylmethyl)-3-[[2-hydroxy-4-phenyl-3-[(3,3,3-trifluoro-2-hydroxy-1-oxopropyl)amino]butyl]amino]-propyl]carbamic acid, 1,1-dimethylethyl ester (isomer A)]: the inhibition at 10 µM on HIV protease (setting [2]) came out at 99%. The IC50 in assay [1] (setting [3]) was found to be 60 nM.

Take `CC(C)(C)OC(=O)N[C@@H](Cc1ccccc1)[C@H](O)CNC[C@@H](O)[C@H](Cc1ccccc1)NC(=O)C(C)(O)C(F)(F)F` (single isomer, unassigned; isomer a) [Compound 293, [1S-[1R*,2S*(2S*,3R*)]]-[2-Hydroxy-3-[2-hydroxy-1-oxo-2-(trifluoromethyl)-propyl]amino]-4-phenylbutyl]amino]-1-(phenylmethyl)propyl]carbamic acid, 1,1-dimethylethylester (isomer A)]: the inhibition at 10 µM at HIV protease (setting [2]) turned out to be 99%. Also, in assay [1] (setting [3]), the IC50 is 30 nM.

As for `CC(C)(C)OC(=O)N[C@@H](Cc1ccccc1)[C@H](O)CNC[C@@H](O)[C@H](Cc1ccccc1)NC(=O)C(NC(=O)OCc1ccccc1)C(C)(C)O` (single isomer, unassigned; isomer a) [Compound 301, [1S-[1R*,2S*(2S*,3R*)]]-[1-[[[3-[[(1,1-Dimethylethoxy)carbonyl]amino]-2-hydroxy-4-phenylbutyl]amino]-2-hydroxy-1-(phenylmethyl)propyl]amino]carbonyl]-2-hydroxy-2-methylpropyl]carbamic acid, phenylmethyl ester, isomer A], at HIV protease (setting [2]), the inhibition at 10 µM stood at 95%. Besides, the IC50 in assay [1] (setting [3]) was found to be 2400 nM.

On to `CC(C)(C)OC(=O)N[C@@H](Cc1ccccc1)[C@H](O)CNC[C@@H](O)[C@H](Cc1ccccc1)NC(=O)C(NC(=O)OCc1ccccc1)C(C)(C)CO` (single isomer, unassigned; isomer a) [Compound 308, [1S-[1R*,2S*(2S*,3R*)]]-1-[[[3-[[(1,1-Dimethylethoxy)carbonyl]amino]-2-hydroxy-4-phenylbutyl]amino]-2-hydroxy-1-(phenylmethyl)propyl]amino]carbonyl-2-(hydroxymethyl)-2-methylpropyl] carbamic acid, phenylmethyl ester, isomer A], for which, on HIV protease (setting [2]), the inhibition at 10 µM amounted to 100%. Also, the IC50 in assay [1] was 20 nM.

In the case of `CC(C)(C)OC(=O)N[C@@H](Cc1ccccc1)[C@H](O)CNC[C@@H](O)[C@H](Cc1ccccc1)NC(=O)C(CCO)C(C)(C)C` (single isomer, unassigned; isomer a) [Compound 312, [1S-[1R*, 2S* (2S*, 3R*)]]-[3-[[3-[[2-(1,1-Dimethylethyl)-4-hydroxy-1-oxobutyl]amino]-2-hydroxy-4-phenylbutyl]amino]-2-hydroxy-1-(phenylmethyl)propyl]carbamic acid, 1,1-dimethylethyl ester, isomer A], the “HIV Protease % Inhibition at 10 μM” value at HIV protease (setting [4]) came to 95%. Also, in assay [1] (setting [3]), the IC50 was 3500 nM.

`CC(C)(C)OC(=O)N[C@@H](Cc1ccccc1)[C@H](O)CNC[C@@H](O)[C@H](Cc1ccccc1)NC(=O)C1(O)CCCC1(C)C` (single isomer, unassigned; isomer a) [Compound 321, [1S-[1R*,2S*(2S*,3R*)]]-[3-[[3-[[2,2-Dimethyl-1-hydroxycyclopentyl)-carbonyl]amino]-2-hydroxy-4-phenylbutyl]amino]-2-hydroxy-1-(phenylmethyl)propyl]carbamic acid, 1,1-dimethylethyl ester, isomer A]: the inhibition at 10 µM at HIV protease (setting [5]) came to 100%. Besides, in assay [1], the IC50 was 200 nM.

Regarding `CC1(C)CCCC1(O)C(=O)N[C@@H](Cc1ccccc1)[C@H](O)CNC[C@@H](O)[C@H](Cc1ccccc1)NC(=O)C1(O)CCCC1(C)C` (single isomer, unassigned; isomer a) [Compound 336], the inhibition at 10 µM on HIV protease (setting [2]) came out at 100%. In addition, the 50% inhibitory concentration (IC50) in assay [1] came to 40 nM.

As to `CC(C)(C)OC(=O)N[C@@H](Cc1ccccc1)[C@H](O)CNC[C@@H](O)[C@H](Cc1ccc(OCC(O)c2cccnc2)cc1)NC(=O)OC(C)(C)C` (single isomer, unassigned; isomer a) [Compound 355, [1S-[1R*,2S* (2S*,3R*)]]-[3-[[3-[[(1,1-Dimethylethoxy)carbonyl]amino]-2-hydroxy-4-[4-[2-hydroxy-2-(3-pyridinyl)ethoxy]phenyl]-butyl]amino]-2-hydroxy-1-(phenylmethyl)-propyl]-carbamic acid, 1,1-dimethylethyl ester, Isomer A], at HIV protease (setting [5]), the inhibition at 10 µM was determined as 99%. Moreover, the IC50 in assay [1] (setting [3]) worked out at 70 nM.

On to `CC(C)(C)OC(=O)N[C@@H](Cc1ccccc1)[C@H](O)CNC[C@@H](O)[C@H](Cc1ccccc1)NC(=O)C(C)(O)C(C)(C)CO` (single isomer, unassigned; isomer a) [Compound 356, [1S-[1R*,2S*(2S*,3R*)]]-[3-[3-[2,4-Dihydroxy-2,3,3-trimethyl-1-oxobutyl)amino]-2-hydroxy-4-phenylbutyl]amino]-2-hydroxy-1-(phenylmethyl)propyl]carbamic acid, 1,1-dimethylethyl ester, isomer A], for which, on HIV protease (setting [5]), the inhibition at 10 µM was found to be 99%. Further, the half-inhibitory concentration (IC50) in assay [1] (setting [3]) was 120 nM.

With `CC(C)(C)OC(=O)N[C@@H](Cc1ccccc1)[C@H](O)CNC[C@@H](O)[C@H](Cc1ccccc1)NC(=O)C1(O)COCC1(C)C` (single isomer, unassigned; isomer a) [Compound 364, [1S-[1R*,2S*(2S*,3R*)]]-[2-Hydroxy-3-[[tetrahydro-3-hydroxy-4,4-dimethyl-3-furanyl)carbonyl]amino]-4-phenylbutyl]amino]-1-(phenylmethyl)-propyl]carbamic acid, 1,1-dimethylethyl ester, Isomer A], on HIV protease (setting [4]), the “HIV Protease % Inhibition at 10 μM” value came out at 98%. Moreover, the IC50 in assay [1] (setting [3]) was found to be 220 nM.
